In the supplement of paper PMC8837787:

Tested on: Saccharomyces cerevisiae ABC16-Green Monster
Details: 18 h; 30 °C; YPD
Procedure: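 Growth inhibition of the drug-sensitive S. cerevisiae ABC16-Green Monster strain (16 ABC transporters deleted) in YPD at 30 °C for 18 h. […] dilution series […] in biological replicates; IC50 from OD600 (18 h minus 0 h) fitted by variable-slope nonlinear regression in GraphPad Prism. Library compounds were first screened at 150 µM, and only those with at least 70% inhibition went to dose-response; the rest are marked inactive.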

CN(CC=CC#CC(C)(C)C)Cc1cccc2ccccc12.Cl [Terbinafine]
IC50 growth inhibition: 76.9 µM

CC(C)c1csc(NC(=O)c2cnn(-c3ccccc3F)c2C(F)(F)F)n1
IC50 growth inhibition: 31.3 µM

COC1C=COC2(C)Oc3c(C)c(O)c4c(c3C2=O)C(=O)C(=CNN2CCN(C)CC2)C(=C4O)NC(=O)C(C)=CC=CC(C)C(O)C(C)C(O)C(C)C(OC(C)=O)C1C (stereo not drawn) [Rifampicin]
IC50 growth inhibition: > 75 µM

COCC1OC(=O)c2coc3c2C1(C)C1=C(C3=O)C2CCC(=O)C2(C)CC1OC(C)=O (stereo not drawn) [Wortmannin]
IC50 growth inhibition: 27.7 µM

Cc1cc(C2CCCCC2)n(O)c(=O)c1 [Ciclopirox]
IC50 growth inhibition: 33.4 µM

COc1cc(Nc2ncc(F)c(Nc3ccc4c(n3)NC(=O)C(C)(C)O4)n2)cc(OC)c1OC [Tamatinib besilate]
IC50 growth inhibition: > 75 µM

CCN1C(=Cc2cc(C)[n+](CCCN3CCOCC3)c(C)c2)Sc2ccccc21
IC50 growth inhibition: 55.3 µM

CN(C)CCCN1c2ccccc2CCc2ccc(Cl)cc21.Cl [Clomipramine]
IC50 growth inhibition: 18.3 µM

CC(Oc1ccc(Cl)cc1Cl)c1nc(-c2ccc(NC(=O)c3cccs3)cc2)no1 (stereo not drawn) [GNF-Pf-2823]
IC50 growth inhibition: 3.9 µM

CCOC(=O)C1=C(C)NC(C)=C(C(=O)OC)C1c1cccc(Cl)c1Cl (stereo not drawn) [Felodipine]
IC50 growth inhibition: 20.7 µM

COc1cccc(-n2nnnc2S(=O)(=O)Cc2ccccc2)c1
IC50 growth inhibition: 16.1 µM

COC1OC2OC3(C)CCC4C(C)CCC(C1C)C24OO3 (stereo not drawn) [Artemether]
IC50 growth inhibition: 70.6 µM

CCCCCCCCCCCCCCCCOP(=O)([O-])OCC[N+](C)(C)C [Miltefosine]
IC50 growth inhibition: 9.3 µM

CCN(CC)C(=S)SSC(=S)N(CC)CC [Disulfiram]
IC50 growth inhibition: 52.9 µM

CN1CC(C(=O)NC2(C)OC3(O)C4CCCN4C(=O)C(Cc4ccccc4)N3C2=O)CC2c3cccc4[nH]cc(c34)CC21 (stereo not drawn) [Dihydroergotamine]
IC50 growth inhibition: > 75 µM

Oc1c(C(Nc2ccccn2)c2cccc(Cl)c2Cl)ccc2cccnc12 (stereo not drawn) [GNF-Pf-5250]
IC50 growth inhibition: > 150 µM

CCCCCCCCCCCCCCCCCCOCC(COP(=O)([O-])OCC[N+](C)(C)C)OC (stereo not drawn) [Edelfosine]
IC50 growth inhibition: 29.1 µM

CC1(C)OB(O)c2cc(NC(=O)c3ccc(-n4cccn4)cc3Cl)ccc21 [AN7973]
IC50 growth inhibition: 0.355 µM

CN(C)CCNc1nc2sc3c(c2c(=O)n1Cc1ccco1)CCCCC3
IC50 growth inhibition: 32.5 µM

COc1ccc(-c2cnc3ccc(N4CCCC4)nn23)cc1OC
IC50 growth inhibition: 68.5 µM

N=C(N)Nc1ccc(-c2ccc(-c3ccc(NC(=N)N)cc3Cl)o2)c(Cl)c1
IC50 growth inhibition: 44.5 µM

COC(=O)C1=C(C)NC(C)=C(C(=O)OCC(C)C)C1c1ccccc1[N+](=O)[O-] (stereo not drawn) [Nisoldipine]
IC50 growth inhibition: 41 µM

Cc1cc(C)n(-c2ccc(CN3c4ccc(S(N)(=O)=O)cc4CC3C)cc2)n1 (stereo not drawn)
IC50 growth inhibition: 129 µM

Cc1nn(C)cc1C(C)Nc1nncc(-c2ccc(C(F)(F)F)cc2)n1 (stereo not drawn)
IC50 growth inhibition: 44.9 µM

CN(C(=O)c1cc2c(-c3cncnc3)cccc2[nH]1)c1ccccc1
IC50 growth inhibition: 26.3 µM

OC(c1cc(C(F)(F)F)nc2c(C(F)(F)F)cccc12)C1CCCCN1 (stereo not drawn) [Mefloquine]
IC50 growth inhibition: 29.9 µM

O=C(Nc1ccccc1)c1ccc(-c2cc3ccncc3cc2OC2CCNCC2)s1
IC50 growth inhibition: 44.8 µM

O=C1C2=C(Nc3ccccc3SC2c2ccccc2F)c2ccccc21 (stereo not drawn)
IC50 growth inhibition: 9.02 µM

CN(Cc1nc(N)c2c3c(sc2n1)CCCC3)Cc1cccs1
IC50 growth inhibition: 107 µM

Cc1cc(=O)[nH]c(-n2nc(C3CC3)cc2NC(=O)C2(c3ccc(Cl)cc3)CCCC2)n1 [CBR668]
IC50 growth inhibition: 1.93 µM

CC1COC(Cn2cncn2)(c2ccc(Oc3ccc(Cl)cc3)cc2Cl)O1 (stereo not drawn)
IC50 growth inhibition: 39 µM

O=C(Nc1cc(Oc2cc(F)c(NC(=O)C3(C(=O)Nc4ccc(F)cc4)CC3)cc2F)ccn1)C1CC1 [Altiratinib]
IC50 growth inhibition: > 75 µM

CC(c1ncncc1F)C(O)(Cn1cncn1)c1ccc(F)cc1F (stereo not drawn) [Voriconazole]
IC50 growth inhibition: 0.18 µM

CCC(C)C1OC2(CCC1C)CC1CC(CC=C(C)C(OC3CC(OC)C(OC4CC(OC)C(O)C(C)O4)C(C)O3)C(C)C=CC=C3COC4C(O)C(C)=CC(C(=O)O1)C34O)O2 (stereo not drawn) [Ivermectin]
IC50 growth inhibition: > 75 µM

CN(C)CCC=C1c2ccccc2CCc2ccccc21 [Amitriptyline]
IC50 growth inhibition: 56.8 µM

C[C@@H]1COCCN1c1cc(C2(S(C)(=O)=O)CC2)nc(-c2cccc3[nH]ccc23)n1 [AZ-20]
IC50 growth inhibition: > 75 µM

CCS(=O)(=O)c1ncc(Cl)c(C(=O)Nc2cc(Cl)cc(Cl)c2)n1
IC50 growth inhibition: 6.66 µM

COc1cc(NC(C)CCCN)c2ncccc2c1 (stereo not drawn) [Primaquine]
IC50 growth inhibition: 107 µM

CCC1(O)C(=O)OCc2c1cc1n(c2=O)Cc2cc3c(CN(C)C)c(O)ccc3nc2-1 (stereo not drawn) [Topotecan]
IC50 growth inhibition: > 75 µM

OCCNc1nc(Oc2ccc(-c3ccccc3)cc2)nc2ccccc12
IC50 growth inhibition: 21.7 µM

CC(C)/N=c1\cc2n(-c3ccc(Cl)cc3)c3ccccc3nc-2cc1Nc1ccc(Cl)cc1 [Clofazimine]
IC50 growth inhibition: 5.81 µM

N.N.O=C([O-])C1(C(=O)[O-])CCC1.[Pt+2] [Carboplatin]
IC50 growth inhibition: > 75 µM

CC(=O)OCC1OC([S-])C(OC(C)=O)C(OC(C)=O)C1OC(C)=O.CCP(CC)CC (stereo not drawn) [Auranofin]
IC50 growth inhibition: 27.4 µM

Cn1cc(CN2CCc3c(c(C(=O)NCc4nccs4)nn3Cc3ccccc3)C2)c2ccccc21
IC50 growth inhibition: 109 µM

COCCNc1cc(C(C)C)nc2c(-c3ccccc3)cnn12
IC50 growth inhibition: 52.6 µM

Cc1cc(C(=O)Cn2c(CO)nc3ccccc32)c(C)n1-c1ccccc1
IC50 growth inhibition: 62.4 µM

CC1(C)C2CCC(C2)C1(C)NC(=S)NN=Cc1ccccn1 (stereo not drawn) [GNF-Pf-5458]
IC50 growth inhibition: 3.1 µM

O=C1N(Cc2cc3ccccc3s2)CC2CN(Cc3ccccc3)CCN12 (stereo not drawn)
IC50 growth inhibition: 30.2 µM

COc1ccccc1N=C1C(=O)c2ccccc2C(O)=C1N1CCCCC1
IC50 growth inhibition: 7.84 µM

CC[C@H]1OC(=O)[C@H](C)[C@@H](O[C@H]2C[C@@](C)(OC)[C@@H](O)[C@H](C)O2)[C@H](C)[C@@H](O[C@@H]2O[C@H](C)C[C@H](N(C)C)[C@H]2O)[C@](C)(O)C[C@@H](C)C(=O)[C@H](C)[C@@H](O)[C@]1(C)O [Erythromycin]
IC50 growth inhibition: > 75 µM

CCCC(CCC)C(=O)O [Valproic acid]
IC50 growth inhibition: > 75 µM

Cc1ccc(Cc2c(C)nn(-c3nc4ccccc4[nH]3)c2O)cc1 [CBR868]
IC50 growth inhibition: 5.39 µM

CC1=Nn2cc(-c3ccccc3)nc2SC1c1ccccc1 (stereo not drawn)
IC50 growth inhibition: 64.2 µM

COC(=O)c1ccc(C(=O)OC)c(N2C(=O)C=CC2=O)c1
IC50 growth inhibition: 67.7 µM

Cc1cc(C(=O)NCCSc2ccccc2)c(C)n1C(C)C
IC50 growth inhibition: 60.5 µM

Cc1ccc(-c2nc(CN(Cc3ccccn3)C(C)C)cs2)o1
IC50 growth inhibition: 12 µM

CC1=NN(c2nc3ccccc3[nH]2)C(=O)C1Cc1ccccc1 (stereo not drawn) [CBR110]
IC50 growth inhibition: 3.48 µM

CC1C=CC=CCCC=CC=CC=CC=CC(OC2OC(C)C(O)C(N)C2O)CC2OC(O)(CC(O)C(O)CCC(O)CC(O)CC(O)CC(=O)OC(C)C(C)C1O)CC(O)C2C(=O)O (stereo not drawn) [Nystatin]
IC50 growth inhibition: > 75 µM

CCOC(=O)Nc1ccc(NCc2ccc(F)cc2)cc1N [Retigabine]
IC50 growth inhibition: > 75 µM

Cc1ccc(C2Sc3ccccc3N=C3C2=C(O)c2ccccc23)cc1 (stereo not drawn) [GNF-Pf-5468]
IC50 growth inhibition: 4.95 µM

CC(C)(C)c1ccc(NC(=O)c2ccc[nH]c2=S)cc1
IC50 growth inhibition: 25.4 µM

COc1ccc(Oc2ccc([C@@H](C)N(C)c3ncc4c(N)nc(N)nc4n3)cc2)cc1
IC50 growth inhibition: 30.5 µM

COC(=O)C1=C(C)NC(C)=C(C(=O)OC(C)C)C1c1cccc2nonc12 (stereo not drawn) [Israpidine]
IC50 growth inhibition: > 150 µM

Cc1nc(-c2ccccn2)nc(N(C)CCc2ccccc2)c1Cl
IC50 growth inhibition: 43.3 µM

C=CCn1c(C)cc(C(=O)CSc2nc3ccccc3[nH]2)c1C
IC50 growth inhibition: 4.24 µM

N#CC(c1ccc(Cl)cc1)c1c(Cl)cc(-n2ncc(=O)[nH]c2=O)cc1Cl (stereo not drawn) [Diclazuril]
IC50 growth inhibition: 68.5 µM

C=CCC1C=C(C)CC(C)CC(OC)C2OC(O)(C(=O)C(=O)N3CCCCC3C(=O)OC(C(C)=CC3CCC(O)C(OC)C3)C(C)C(O)CC1=O)C(C)CC2OC (stereo not drawn) [Tacrolimus/FK-506]
IC50 growth inhibition: > 75 µM

O=C(Nc1cccc(C(F)(F)F)c1)c1cc(Cl)ccc1O
IC50 growth inhibition: 4.18 µM

CN(CC1COc2ccccc2O1)C(=O)Nc1nc2ccccc2s1 (stereo not drawn)
IC50 growth inhibition: 48 µM

Cc1nc2ccccc2nc1SC(C)C(=O)c1c[nH]c2ccccc12 (stereo not drawn)
IC50 growth inhibition: 33.8 µM

Cc1cc(C(=O)Cn2cnc3ccccc3c2=O)c(C)n1-c1ccccc1
IC50 growth inhibition: 61 µM

CCc1c(C(=O)Nc2nc(C)cs2)cnn1-c1cccc(Cl)c1
IC50 growth inhibition: 30.5 µM

Cc1cc(=O)nc(N/N=C/c2cc(C)n(CC(F)(F)F)c2C)[nH]1
IC50 growth inhibition: 81.9 µM

Cc1nc(-c2ccccn2)nc(N2CCC(Cc3ccccc3)C2)c1Cl (stereo not drawn)
IC50 growth inhibition: 21 µM

c1cc2c(cc1C1=NNC(=NC3CC3)SC1)CCCC2
IC50 growth inhibition: 50.8 µM

COC(=O)Nc1nc2cc(C(=O)c3ccccc3)ccc2[nH]1
IC50 growth inhibition: 58.4 µM

CCC1(O)CC2CN(CCc3c([nH]c4ccccc34)C(C(=O)OC)(c3cc4c(cc3OC)N(C)C3C(O)(C(=O)OC)C(OC(C)=O)C5(CC)C=CCN6CCC43C65)C2)C1 (stereo not drawn) [Vinblastine]
IC50 growth inhibition: > 75 µM

COc1ccc(/C=C/c2ccc3c(Cl)cc(Cl)c(O)c3n2)cc1
IC50 growth inhibition: 22.3 µM
